Reference: patent US12577206B2 (BRISTOL-MYERS SQUIBB COMPANY, priority 2020, dated 2026)

Key:
[1] = target: T1, human FPR1 (Homo sapiens, UniProt P21462); experiment: FPR1 cyclic adenosine monophosphate (cAMP) assay; format: cell-based; conditions: CHO cells overexpressing human FPR1; forskolin 10 μM; inhibition of cAMP production; HTRF; read-out: hFPR1 cAMP2 EC50
T1 sequence (P21462 1-350): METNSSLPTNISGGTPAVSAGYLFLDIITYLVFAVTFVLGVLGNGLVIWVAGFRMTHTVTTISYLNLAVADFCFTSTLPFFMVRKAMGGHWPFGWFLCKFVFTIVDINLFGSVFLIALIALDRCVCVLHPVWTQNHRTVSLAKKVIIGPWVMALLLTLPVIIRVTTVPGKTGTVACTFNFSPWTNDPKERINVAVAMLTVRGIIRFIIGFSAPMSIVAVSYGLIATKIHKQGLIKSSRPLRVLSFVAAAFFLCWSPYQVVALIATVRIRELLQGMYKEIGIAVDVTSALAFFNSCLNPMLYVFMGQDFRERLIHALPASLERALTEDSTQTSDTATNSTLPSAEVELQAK
Outline: (§1)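 CHO cells overexpressing human FPR1 (4,000/well) or FPR2 (2,000/well) were incubated 30 min at room temperature with compound (0.020 nM to 100 μM, 1% DMSO), IBMX 200 μM, and forskolin at 10 μM (FPR1) or 5 μM (FPR2), all final. HTRF cAMP read-out; inhibition fitted by 4-parameter logistic equation.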

[2] = target: T2, human FPR2 (Homo sapiens, UniProt P25090); experiment: FPR2 cyclic adenosine monophosphate (cAMP) assay; format: cell-based; conditions: CHO cells overexpressing human FPR2; forskolin 5 μM; inhibition of cAMP production; HTRF; read-out: hFPR2 cAMP2 EC50
T2 sequence (P25090 1-351): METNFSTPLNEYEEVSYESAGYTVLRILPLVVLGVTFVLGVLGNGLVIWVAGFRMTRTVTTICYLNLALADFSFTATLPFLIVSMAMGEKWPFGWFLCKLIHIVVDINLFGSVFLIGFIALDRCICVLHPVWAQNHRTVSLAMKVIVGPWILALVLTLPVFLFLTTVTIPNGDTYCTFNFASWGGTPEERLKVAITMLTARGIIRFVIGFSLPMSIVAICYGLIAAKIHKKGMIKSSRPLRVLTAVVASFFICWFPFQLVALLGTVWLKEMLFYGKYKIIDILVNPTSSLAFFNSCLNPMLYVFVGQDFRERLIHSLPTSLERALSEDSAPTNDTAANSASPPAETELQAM
Outline: as §1

| EC50 [1] [nM] | EC50 [2] [nM] | Compound |
| --- | --- | --- |
| 37 | 9 | COc1cc(F)c(-c2c(NC(=O)c3ccc(OC(F)F)cc3)c(=O)n(-c3cccc(C#N)c3)n2C)c(F)c1 [Example 110, N-[2-(3-cyanophenyl)-5-(2,6-difluoro-4-methoxyphenyl)-1-methyl-3-oxo-2,3-dihydro-1H-pyrazol-4-yl]-4-(difluoromethoxy)benzamide] |
| 2 | 4 | COc1cc(F)c(-c2c(NC(=O)c3ccc(OC(F)F)cc3)c(=O)n(-c3cccc(C4CC4)c3)n2C)c(F)c1 [Example 111, N-[2-(3-cyclopropylphenyl)-5-(2,6-difluoro-4-methoxyphenyl)-1-methyl-3-oxo-2,3-dihydro-1H-pyrazol-4-yl]-4-(difluoromethoxy)benzamide] |
| 3 | 5 | COc1cccc(-n2c(=O)c(NC(=O)c3ccc(OC(F)F)cc3)c(-c3c(F)cc(OC)cc3F)n2C)c1 [Example 112, N-[5-(2,6-difluoro-4-methoxyphenyl)-2-(3-methoxyphenyl)-1-methyl-3-oxo-2,3-dihydro-1H-pyrazol-4-yl]-4-(difluoromethoxy)benzamide] |
| 2 | 2 | COC(=O)c1cccc(-n2c(=O)c(NC(=O)c3ccc(OC(F)F)cc3)c(-c3c(F)cc(OC)cc3F)n2C)c1 [Example 113, methyl 3-[3-(2,6-difluoro-4-methoxyphenyl)-4-[4-(difluoromethoxy)benzamido]-2-methyl-5-oxo-2,5-dihydro-1H-pyrazol-1-yl]benzoate] |
| 280 | 5 | COc1cc(F)c(-c2c(NC(=O)c3ccc(OC(F)F)cc3)c(=O)n(-c3ccnc(OC)c3)n2C)c(F)c1 [Example 115, N-[5-(2,6-difluoro-4-methoxyphenyl)-2-(2-methoxypyridin-4-yl)-1-methyl-3-oxo-2,3-dihydro-1H-pyrazol-4-yl]-4-(difluoromethoxy)benzamide] |
| 2000 | 21 | COc1cc(F)c(-c2c(NC(=O)c3ccc(OC(F)F)cc3)c(=O)n(-c3ccnc(Cl)c3)n2C)c(F)c1 [Example 116, N-[2-(2-chloropyridin-4-yl)-5-(2,6-difluoro-4-methoxyphenyl)-1-methyl-3-oxo-2,3-dihydro-1H-pyrazol-4-yl]-4-(difluoromethoxy)benzamide] |
| > 10000 | 8 | COc1cc(-n2c(=O)c(NC(=O)c3ccc(OC(F)F)cc3)c(-c3c(F)cc(OC)cc3F)n2C)cc(C(F)(F)F)c1 [Example 117, N-[5-(2,6-difluoro-4-methoxyphenyl)-2-[3-methoxy-5-(trifluoromethyl)phenyl]-1-methyl-3-oxo-2,3-dihydro-1H-pyrazol-4-yl]-4-(difluoromethoxy)benzamide] |
| 3 | 6 | CCOc1cccc(-n2c(=O)c(NC(=O)c3ccc(OC(F)F)cc3)c(-c3c(F)cc(OC)cc3F)n2C)c1 [Example 118, N-[5-(2,6-difluoro-4-methoxyphenyl)-2-(3-ethoxyphenyl)-1-methyl-3-oxo-2,3-dihydro-1H-pyrazol-4-yl]-4-(difluoromethoxy)benzamide] |
| 65 | 8 | COc1cc(F)c(-c2c(NC(=O)c3ccc(OC(F)F)cc3)c(=O)n(-c3cc(C#N)cc(C(C)C)c3)n2C)c(F)c1 [Example 119, N-{2-[3-cyano-5-(propan-2-yl)phenyl]-5-(2,6-difluoro-4-methoxyphenyl)-1-methyl-3-oxo-2,3-dihydro-1H-pyrazol-4-yl}-4-(difluoromethoxy)benzamide] |
| 6000 | 4 | COC(=O)c1cc(Cl)cc(-n2c(=O)c(NC(=O)c3ccc(OC(F)F)cc3)c(-c3c(F)cc(OC)cc3F)n2C)c1 [Example 120, methyl 3-chloro-5-[3-(2,6-difluoro-4-methoxyphenyl)-4-[4-(difluoromethoxy)benzamido]-2-methyl-5-oxo-2,5-dihydro-1H-pyrazol-1-yl]benzoate] |
| > 10000 | 6 | COc1cc(C)cc(-n2c(=O)c(NC(=O)c3ccc(OC(F)F)cc3)c(-c3c(F)cc(OC)cc3F)n2C)c1 [Example 121, N-[5-(2,6-difluoro-4-methoxyphenyl)-2-(3-methoxy-5-methylphenyl)-1-methyl-3-oxo-2,3-dihydro-1H-pyrazol-4-yl]-4-(difluoromethoxy)benzamide] |
| > 10000 | 21 | CCOc1cc(-n2c(=O)c(NC(=O)c3ccc(OC(F)F)cc3)c(-c3c(F)cc(OC)cc3F)n2C)cc(C(F)(F)F)c1 [Example 122, N-[5-(2,6-difluoro-4-methoxyphenyl)-2-[3-ethoxy-5-(trifluoromethyl)phenyl]-1-methyl-3-oxo-2,3-dihydro-1H-pyrazol-4-yl]-4-(difluoromethoxy)benzamide] |
| > 10000 | 19 | COc1cc(F)c(-c2c(NC(=O)c3ccc(OC(F)F)cc3)c(=O)n(-c3cc(Cl)cc(OC(F)(F)F)c3)n2C)c(F)c1 [Example 123, N-{2-[3-chloro-5-(trifluoromethoxy)phenyl]-5-(2,6-difluoro-4-methoxyphenyl)-1-methyl-3-oxo-2,3-dihydro-1H-pyrazol-4-yl}-4-(difluoromethoxy)benzamide] |
| > 10000 | 4 | COc1cc(Cl)cc(-n2c(=O)c(NC(=O)c3ccc(OC(F)F)cc3)c(-c3c(F)cc(OC)cc3F)n2C)c1 [Example 124, N-[2-(3-chloro-5-methoxyphenyl)-5-(2,6-difluoro-4-methoxyphenyl)-1-methyl-3-oxo-2,3-dihydro-1H-pyrazol-4-yl]-4-(difluoromethoxy)benzamide] |
| 2000 | 4 | COc1cc(F)c(-c2c(NC(=O)c3ccc(OC(F)F)cc3)c(=O)n(-c3cc(F)cc(OC(C)C)c3)n2C)c(F)c1 [Example 125, N-[5-(2,6-difluoro-4-methoxyphenyl)-2-[3-fluoro-5-(propan-2-yloxy)phenyl]-1-methyl-3-oxo-2,3-dihydro-1H-pyrazol-4-yl]-4-(difluoromethoxy)benzamide] |
| 1200 | 9 | COc1cc(F)c(-c2c(NC(=O)c3ccc(OC(F)F)cc3)c(=O)n(-c3cc(Cl)cc(C(=O)N(C)C)c3)n2C)c(F)c1 [Example 126, 3-chloro-5-[3-(2,6-difluoro-4-methoxyphenyl)-4-[4-(difluoromethoxy)benzamido]-2-methyl-5-oxo-2,5-dihydro-1H-pyrazol-1-yl]-N,N-dimethylbenzamide] |
| > 10000 | 8 | COc1cc(F)c(-c2c(NC(=O)c3ccc(OC(F)F)cc3)c(=O)n(-c3cc(Cl)cc(Cl)c3)n2C)c(F)c1 [Example 127, N-[2-(3,5-dichlorophenyl)-5-(2,6-difluoro-4-methoxyphenyl)-1-methyl-3-oxo-2,3-dihydro-1H-pyrazol-4-yl]-4-(difluoromethoxy)benzamide] |
| 19 | 7 | COC(=O)c1cncc(-n2c(=O)c(NC(=O)c3ccc(OC(F)F)cc3)c(-c3c(F)cc(OC)cc3F)n2C)c1 [Example 128, methyl 5-[3-(2,6-difluoro-4-methoxyphenyl)-4-[4-(difluoromethoxy)benzamido]-2-methyl-5-oxo-2,3-dihydro-1H-pyrazol-1-yl]pyridine-3-carboxylate] |
| 2200 | 24 | COc1cncc(-n2c(=O)c(NC(=O)c3ccc(OC(F)F)cc3)c(-c3c(F)cc(OC)cc3F)n2C)c1 [Example 129, N-[5-(2,6-difluoro-4-methoxyphenyl)-2-(5-methoxypyridin-3-yl)-1-methyl-3-oxo-2,3-dihydro-1H-pyrazol-4-yl]-4-(difluoromethoxy)benzamide] |
| 1900 | 20 | COc1cc(F)c(-c2c(NC(=O)c3ccc(OC(F)F)cc3)c(=O)n(-c3cncc(Cl)c3)n2C)c(F)c1 [Example 130, N-[2-(5-chloropyridin-3-yl)-5-(2,6-difluoro-4-methoxyphenyl)-1-methyl-3-oxo-2,3-dihydro-1H-pyrazol-4-yl]-4-(difluoromethoxy)benzamide] |
| > 10000 | 11 | COc1cc(F)c(-c2c(NC(=O)c3ccc(OC(F)F)cc3)c(=O)n(-c3cc(Cl)cc(C(F)(F)F)c3)n2C)c(F)c1 [Example 131, N-{2-[3-chloro-5-(trifluoromethyl)phenyl]-5-(2,6-difluoro-4-methoxyphenyl)-1-methyl-3-oxo-2,3-dihydro-1H-pyrazol-4-yl}-4-(difluoromethoxy)benzamide] |
| 83 | 6 | COc1cc(F)cc(-n2c(=O)c(NC(=O)c3ccc(OC(F)F)cc3)c(-c3c(F)cc(OC)cc3F)n2C)c1 [Example 132, N-[5-(2,6-difluoro-4-methoxyphenyl)-2-(3-fluoro-5-methoxyphenyl)-1-methyl-3-oxo-2,3-dihydro-1H-pyrazol-4-yl]-4-(difluoromethoxy)benzamide] |
